According to ChEMBL document CHEMBL4219142, “Discovery of potent DOT1L inhibitors by AlphaLISA based High Throughput Screening assay” (Bioorg Med Chem, 2018):

What was measured:
[1] = system: MV4-11; experiment: Induction of apoptosis in human MV411 cells assessed as necrotic cells at 0.625 uM after 48 hrs by Annexin-V-FITC/propidium iodide staining based flow cytometric method (Rvb <= 0.08%); format: functional
[2] = system: MV4-11; experiment: Induction of apoptosis in human MV411 cells assessed as late apoptotic cells at 0.625 uM after 48 hrs by Annexin-V-FITC/propidium iodide staining based flow cytometric method (reference value: 4.38 to 4.63%); format: functional
[3] = system: MV4-11; experiment: Induction of apoptosis in human MV411 cells assessed as late apoptotic cells at 1.25 uM after 48 hrs by Annexin-V-FITC/propidium iodide staining based flow cytometric method (reference value: 4.38 to 4.63%); format: functional
[4] = system: MV4-11; experiment: Cell cycle arrest in human MV411 cells assessed as accumulation at G1 phase at 0.3125 uM after 24 hrs by propidium iodide staining based flow cytometric analysis (reference value: 40.62 to 65.56%); format: functional
[5] = system: MV4-11; experiment: Induction of apoptosis in human MV411 cells assessed as necrotic cells at 0.3125 uM after 48 hrs by Annexin-V-FITC/propidium iodide staining based flow cytometric method (Rvb <= 0.08%); format: functional
[6] = system: MV4-11; experiment: Induction of apoptosis in human MV411 cells assessed as early apoptotic cells at 0.3125 uM after 48 hrs by Annexin-V-FITC/propidium iodide staining based flow cytometric method (reference value: 1.15 to […]); format: functional
[7] = system: MV4-11; experiment: Induction of apoptosis in human MV411 cells assessed as viable cells at 0.625 uM after 48 hrs by Annexin-V-FITC/propidium iodide staining based flow cytometric method (reference value: 88.5 to 94.5%); format: functional; details: MV4-11, 48 h, read-out: Activity
[8] = system: MV4-11; experiment: Induction of apoptosis in human MV411 cells assessed as necrotic cells at 1.25 uM after 48 hrs by Annexin-V-FITC/propidium iodide staining based flow cytometric method (Rvb <= 0.08%); format: functional
[9] = system: MV4-11; experiment: Induction of apoptosis in human MV411 cells assessed as viable cells at 0.3125 uM after 48 hrs by Annexin-V-FITC/propidium iodide staining based flow cytometric method (reference value: 88.5 to 94.5%); format: functional; details: MV4-11, 48 h, read-out: Activity
[10] = system: MV4-11; experiment: Cell cycle arrest in human MV411 cells assessed as accumulation at G1 phase after 24 hrs by propidium iodide staining based flow cytometric analysis; format: functional
[11] = system: MV4-11; experiment: Cell cycle arrest in human MV411 cells assessed as accumulation at G2 phase at 0.625 uM after 24 hrs by propidium iodide staining based flow cytometric analysis (reference value: 4.19 to 11.88%); format: functional
[12] = system: MV4-11; experiment: Antiproliferative activity against human MV411 cells after 72 hrs by Alamar blue assay; format: functional, cell-based; details: MV4-11, 72 h
[13] = system: MV4-11; experiment: Induction of apoptosis in human MV411 cells assessed as early apoptotic cells at 1.25 uM after 48 hrs by Annexin-V-FITC/propidium iodide staining based flow cytometric method (reference value: 1.15 to […]); format: functional
[14] = target: T1, Histone-lysine N-methyltransferase, H3 lysine-79 specific (Homo sapiens, UniProt Q8TEK3); experiment: (§1) Inhibition of recombinant human His6-SUMO tagged DOT1L (1 to 416 residues) expressed in Escherichia coli BL21(DE3) at 25 uM using oligonucleosome as substrate pretreated for 15 mins followed by substrate addition measured after 60 mins in presence of [3H]SAM by liquid scintillation counting method relative to control
Target sequence in this assay (Q8TEK3 whole entry, looked up, the tested form may be a part): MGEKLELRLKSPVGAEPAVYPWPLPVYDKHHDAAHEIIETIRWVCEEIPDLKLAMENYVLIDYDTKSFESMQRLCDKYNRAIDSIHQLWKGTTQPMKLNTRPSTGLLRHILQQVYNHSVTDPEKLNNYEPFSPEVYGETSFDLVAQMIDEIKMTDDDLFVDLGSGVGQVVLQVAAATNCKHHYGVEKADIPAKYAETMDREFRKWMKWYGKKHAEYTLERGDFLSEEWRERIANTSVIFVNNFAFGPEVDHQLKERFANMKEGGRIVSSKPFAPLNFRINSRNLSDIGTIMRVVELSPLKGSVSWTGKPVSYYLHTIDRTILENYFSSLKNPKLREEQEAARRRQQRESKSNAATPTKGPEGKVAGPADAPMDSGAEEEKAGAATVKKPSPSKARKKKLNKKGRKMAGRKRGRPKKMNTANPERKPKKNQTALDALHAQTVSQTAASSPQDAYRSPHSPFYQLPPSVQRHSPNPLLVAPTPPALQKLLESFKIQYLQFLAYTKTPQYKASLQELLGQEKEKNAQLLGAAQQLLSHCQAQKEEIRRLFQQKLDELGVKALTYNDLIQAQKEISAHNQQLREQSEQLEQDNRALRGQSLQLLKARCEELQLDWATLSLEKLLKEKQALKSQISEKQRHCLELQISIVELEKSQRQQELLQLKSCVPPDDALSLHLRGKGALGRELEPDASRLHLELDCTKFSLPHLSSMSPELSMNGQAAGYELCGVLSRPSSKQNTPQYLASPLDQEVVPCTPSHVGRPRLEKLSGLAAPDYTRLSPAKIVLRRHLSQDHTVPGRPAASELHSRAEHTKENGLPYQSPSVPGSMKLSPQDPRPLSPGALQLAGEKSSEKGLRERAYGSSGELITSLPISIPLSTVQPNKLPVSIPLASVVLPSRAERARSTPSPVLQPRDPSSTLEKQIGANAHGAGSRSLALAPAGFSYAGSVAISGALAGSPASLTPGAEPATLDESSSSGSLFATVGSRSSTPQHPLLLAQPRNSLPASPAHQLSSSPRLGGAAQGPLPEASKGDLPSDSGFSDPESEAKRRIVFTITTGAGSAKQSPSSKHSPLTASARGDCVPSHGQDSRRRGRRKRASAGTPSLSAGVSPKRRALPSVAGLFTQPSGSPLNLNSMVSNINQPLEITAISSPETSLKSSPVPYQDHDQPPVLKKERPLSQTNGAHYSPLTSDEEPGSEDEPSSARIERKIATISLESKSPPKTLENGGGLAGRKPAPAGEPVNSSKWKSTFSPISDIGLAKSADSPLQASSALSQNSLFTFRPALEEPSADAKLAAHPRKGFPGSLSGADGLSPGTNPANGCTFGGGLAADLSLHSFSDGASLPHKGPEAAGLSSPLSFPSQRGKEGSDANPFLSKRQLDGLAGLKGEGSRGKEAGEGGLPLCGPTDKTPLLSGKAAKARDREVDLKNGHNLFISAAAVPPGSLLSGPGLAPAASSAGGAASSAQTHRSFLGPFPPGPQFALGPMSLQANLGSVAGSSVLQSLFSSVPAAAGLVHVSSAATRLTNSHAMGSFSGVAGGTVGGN

[15] = target: T1, Histone-lysine N-methyltransferase, H3 lysine-79 specific; experiment: Binding affinity to recombinant human His6-SUMO tagged DOT1L (1 to 416 residues) expressed in Escherichia coli BL21(DE3) by surface plasmon resonance method
Target sequence in this assay (Q8TEK3 whole entry, the tested form may be a part): as the sequence (Q8TEK3 whole entry, looked up, the tested form may be a part) above

[16] = target: T1, Histone-lysine N-methyltransferase, H3 lysine-79 specific; experiment: as §1, with “100” for “25”
Target sequence in this assay (Q8TEK3 whole entry, looked up, the tested form may be a part): as above

[17] = system: MV4-11; experiment: Induction of apoptosis in human MV411 cells assessed as early apoptotic cells at 0.625 uM after 48 hrs by Annexin-V-FITC/propidium iodide staining based flow cytometric method (reference value: 1.15 to […]); format: functional
[18] = system: MV4-11; experiment: Cell cycle arrest in human MV411 cells assessed as accumulation at G1 phase at 1.25 uM after 24 hrs by propidium iodide staining based flow cytometric analysis (reference value: 40.62 to 65.56%); format: functional
[19] = system: MV4-11; experiment: Cell cycle arrest in human MV411 cells assessed as accumulation at S phase at 0.625 uM after 24 hrs by propidium iodide staining based flow cytometric analysis (reference value: 30.25 to 47.5%); format: functional
[20] = target: T1, Histone-lysine N-methyltransferase, H3 lysine-79 specific; experiment: as §1, with “50” for “25”
Target sequence in this assay (Q8TEK3 whole entry, looked up, the tested form may be a part): as above

[21] = system: MV4-11; experiment: Cell cycle arrest in human MV411 cells assessed as accumulation at G2 phase at 0.3125 uM after 24 hrs by propidium iodide staining based flow cytometric analysis (reference value: 4.19 to 11.88%); format: functional
[22] = system: MV4-11; experiment: Cell cycle arrest in human MV411 cells assessed as accumulation at G2 phase at 1.25 uM after 24 hrs by propidium iodide staining based flow cytometric analysis (reference value: 4.19 to 11.88%); format: functional
[23] = target: T1, Histone-lysine N-methyltransferase, H3 lysine-79 specific; experiment: Inhibition of recombinant human His6-SUMO tagged DOT1L (1 to 416 residues) expressed in Escherichia coli BL21(DE3) using oligonucleosome as substrate pretreated for 15 mins followed by substrate addition measured after 60 mins in presence of [3H]SAM by liquid scintillation counting method
Target sequence in this assay (Q8TEK3 whole entry, the tested form may be a part): as the sequence (Q8TEK3 whole entry, looked up, the tested form may be a part) above

[24] = system: MV4-11; experiment: Cell cycle arrest in human MV411 cells assessed as accumulation at S phase at 0.3125 uM after 24 hrs by propidium iodide staining based flow cytometric analysis (reference value: 30.25 to 47.5%); format: functional
[25] = system: MV4-11; experiment: Cell cycle arrest in human MV411 cells assessed as accumulation at S phase at 1.25 uM after 24 hrs by propidium iodide staining based flow cytometric analysis (reference value: 30.25 to 47.5%); format: functional
[26] = system: MV4-11; experiment: Cell cycle arrest in human MV411 cells assessed as accumulation at G1 phase at 0.625 uM after 24 hrs by propidium iodide staining based flow cytometric analysis (reference value: 40.62 to 65.56%); format: functional
[27] = system: MV4-11; experiment: Induction of apoptosis in human MV411 cells assessed as late apoptotic cells at 0.3125 uM after 48 hrs by Annexin-V-FITC/propidium iodide staining based flow cytometric method (reference value: 4.38 to 4.63%); format: functional
[28] = system: MV4-11; experiment: Induction of apoptosis in human MV411 cells assessed as viable cells at 1.25 uM after 48 hrs by Annexin-V-FITC/propidium iodide staining based flow cytometric method (reference value: 88.5 to 94.5%); format: functional; details: MV4-11, 48 h, read-out: Activity

IC50 [12]: 1.07 µM
inhibition [14]: 62%
Kd [15]: 7.08 µM
inhibition [16]: 78%
inhibition [20]: 75%
IC50 [23]: 9.7 µM
Compound: COc1ccccc1-c1nnc2sc(/C=C/c3ccco3)nn12
Activity [1]: 1.11%
Activity [2]: 35.3%
Activity [3]: 45.5%
Activity [4]: 46.31%
Activity [5]: 0.72%
Activity [6]: 13.7%
viability at 0.625 µM [7]: 30.4%
Activity [8]: 0.91%
viability at 0.3125 µM [9]: 73.6%
Activity [10]: Dose-dependent effect
Activity [11]: 10.59%
Activity [13]: 44.1%
Activity [17]: 33.2%
Activity [18]: 58.01%
Activity [19]: 32.19%
Activity [21]: 16.17%
Activity [22]: 23.18%
Activity [24]: 37.51%
Activity [25]: 18.51%
Activity [26]: 57.22%
Activity [27]: 12%
viability at 1.25 µM [28]: 9.46%
